Among the data in patent US10227315B2, “Mitochondrial uncouplers for treatment of metabolic diseases and cancer” (RUTGERS, THE STATE UNIVERSITY OF NEW JERSEY, priority 2016, dated 2019) are minimal effective concentration and EC50 values, retold here.

In assay [1] the test system is mouse myoblast C2C12 cells. The experiment in a line: Oxygen consumption rate (OCR) assay with Seahorse XF96 or XF24, mitochondrial uncoupling. In kind it is cell-based. The conditions noted are these: 10% fetal bovine serum, in the presence of oligomycin 2.5 μM, read-out: Cmin (minimal concentration to induce ATP synthase-independent OCR increase). An excerpt: By definition, mitochondrial uncoupling is the decoupling of mitochondrial electron transport chain activity (mitochondrial oxidation) from ATP synthesis by mitochondrial ATP synthase. Technically, mitochondrial uncoupling activity is defined by the ability of a chemical compound to induce oxygen consumption of cells or isolated mitochondria in the presence of a mitochondrial ATP synthase inhibitor such as oligomycin. Accordingly, we determined mitochondrial uncoupling activity by oxygen consumption rate (OCR) assay with a Seahorse XF96 or a Seahorse XF24 instrument following the vendor's instruction, using mouse myoblast C2C12 cells growing in medium containing 10% fetal bovine serum. […] The minimal concentration (Cmin) of each compound under which OCR is induced in the presence of oligomycin, was determined.

Assay [2] deals with NIH-3T3 cells, or HepG2 cells. The experiment in a line: Mitochondrial membrane potential assay, TMRE staining. The conditions noted are these: 2 h; two hours treatment, TMRE 100 nM; read-out: EC50, mitochondrial membrane potential reduction (TMRE staining reduced to about 50%). In kind it is cell-based. As for the experimental part: Mitochondrial uncoupling may also lead to a reduction of mitochondrial membrane potential. We performed mitochondrial membrane potential assay using TMRE (tetramethylrhodamine ethyl ester) staining method with cultured mammalian cells, the NIH-3T3 cells, or HepG2 cells. Cells were seeded onto 6-well plates and cultured in DMEM medium supplemented with 10% fetal bovine serum and 2 mM glutamine. Cells were allowed to grow to logarithmic growth phase prior to experiments. The cells were treated with each individual compound at various concentrations for two hours, followed by staining with TMRE at final concentration of 100 nM for 15 minutes. The cells were then washed once with PBS, and examined under fluorescence microscopy. Cells treated with various concentrations of niclosamide ethanolamine were used as positive control. Reduction of mitochondrial TMRE staining was estimated as a quantification of mitochondrial uncoupling activity. […] The following table (Table II) summarizes the activity of individual compounds in reducing mitochondrial membrane potential in cultured mammalian cells.

Molecules are shown by their SMILES.

For `CN(C)CCc1cc(Cl)cc(C(=O)Nc2nc3ccc(C(F)(F)F)cc3s2)c1O` [Compound 2, 5-Chloro-3-(2-(dimethylamino)ethyl)-2-hydroxy-N-(6-(trifluoromethyl)benzo[d]thiazol-2-yl)benzamide], in assay [1], the minimal effective concentration was below 10 µM.

Take `CS(=O)(=O)NCCc1cc(Cl)cc(C(=O)Nc2nc3ccc(C(F)(F)F)cc3s2)c1O` [Compound 3, 5-Chloro-2-hydroxy-3-(2-(methylsulfonamido)ethyl)-N-(6-(trifluoromethyl)benzo[d]thiazol-2-yl)benzamide]: in assay [1], the minimal effective concentration was below 10 µM.

As for `O=C(Nc1nc2ccc(C(F)(F)F)cc2s1)c1cc(Cl)cc2nc(C(F)(F)F)[nH]c12` [Compound 8, 5-Chloro-2-(trifluoromethyl)-N-(6-(trifluoromethyl)benzo[d]thiazol-2-yl)-1H-benzo[d]imidazole-7-carboxamide], the minimal effective concentration in assay [1] fell in the range of 10 to 25 µM. In addition, in assay [2], the EC50 fell in the range of 10 to 25 µM.

Turning to `Oc1cc(Nc2nc3ccc(C(F)(F)F)cc3s2)c(C(F)(F)F)cc1C(F)(F)F` [Compound 9, 2,4-Bis(trifluoromethyl)-5-((6-(trifluoromethyl)benzo[d]thiazol-2-yl)amino)phenol], the minimal effective concentration in assay [1] is above 25 µM. In assay [2], the EC50 is above 25 µM.

As to `O=C(Nc1ccc([N+](=O)[O-])cc1Cl)c1cc(Cl)ccc1OC(=O)N1CCOCC1` [Compound 13, 4-Chloro-2-((2-chloro-4-nitrophenyl)carbamoyl)phenyl morpholine-4-carboxylate], the minimal effective concentration in assay [1] is below 10 µM. The EC50 in assay [2] is below 10 µM.

As to `O=C(Nc1ccc(C(F)(F)F)cc1Cl)c1cc(Cl)ccc1O` [Compound 14, 5-Chloro-N-(2-chloro-4-(trifluoromethyl)phenyl)-2-hydroxybenzamide], in assay [1], the minimal effective concentration is below 10 µM. The EC50 in assay [2] is below 10 µM.

`O=C(Nc1ccc(F)cc1Cl)c1cc(Cl)ccc1O` [Compound 15, 5-Chloro-N-(2-chloro-4-fluorophenyl)-2-hydroxybenzamide]: the minimal effective concentration in assay [1] is below 10 µM. The EC50 in assay [2] was below 10 µM.

As for `N#Cc1ccc(NC(=O)c2cc(Cl)ccc2O)c(Cl)c1` [Compound 16, 5-Chloro-N-(2-chloro-4-cyanophenyl)-2-hydroxybenzamide], in assay [1], the minimal effective concentration is below 10 µM. For the same molecule, the EC50 in assay [2] is below 10 µM.

Turning to `O=C(Nc1nc2c(F)cc(C(F)(F)F)cc2s1)c1cc(Cl)ccc1O` [Compound 21, 5-Chloro-N-(4-fluoro-6-(trifluoromethyl)benzo[d]thiazol-2-yl)-2-hydroxybenzamide], the minimal effective concentration in assay [1] was below 10 µM. The EC50 in assay [2] is below 10 µM.

Consider `O=C(Nc1nc2c(C(F)(F)F)cc(C(F)(F)F)cc2s1)c1cc(Cl)ccc1O` [Compound 22, N-(4,6-Bis(trifluoromethyl)benzo[d]thiazol-2-yl)-5-chloro-2-hydroxybenzamide], for which the minimal effective concentration in assay [1] was below 10 µM. The EC50 in assay [2] is below 10 µM.

As for `O=C(Nc1nc2cc(C(F)(F)F)ccc2s1)c1cc(Cl)ccc1O` [Compound 25, 5-Chloro-2-hydroxy-N-(5-(trifluoromethyl)benzo[d]thiazol-2-yl)benzamide], the minimal effective concentration in assay [1] was above 25 µM. For the same molecule, the EC50 in assay [2] was above 25 µM.

With `O=C(Nc1nc2cccc(C(F)(F)F)c2s1)c1cc(Cl)ccc1O` [Compound 26, 5-Chloro-2-hydroxy-N-(7-(trifluoromethyl)benzo[d]thiazol-2-yl)benzamide], in assay [1], the minimal effective concentration was above 25 µM. Besides, in assay [2], the concentration for a half-maximal effect (EC50) was above 25 µM.

Consider `O=C(Nc1nc2c(C(F)(F)F)cccc2s1)c1cc(Cl)ccc1O` [Compound 32, 5-Chloro-2-hydroxy-N-(4-(trifluoromethyl)benzo[d]thiazol-2-yl)benzamide ethanolamine], for which the minimal effective concentration in assay [1] was below 10 µM. The EC50 in assay [2] is below 10 µM.

For the molecule `O=C(Nc1nc2ccc(C(F)(F)F)cc2s1)c1cc(Cl)ccc1O` [Compound 33, 5-Chloro-2-hydroxy-N-(6-(trifluoromethyl)benzo[d]thiazol-2-yl)benzamide ethanolamine], in assay [1], the minimal effective concentration was below 10 µM. For the same molecule, the EC50 in assay [2] was below 10 µM.

As to `Cc1cc(Cl)cc(C(=O)Nc2nc3c(C(F)(F)F)cccc3s2)c1O` [Compound 34, 5-Chloro-2-hydroxy-3-methyl-N-(4-(trifluoromethyl)benzo[d]thiazol-2-yl)benzamide ethanolamine], the half-maximal effective concentration (EC50) in assay [2] is below 10 µM.

As to `O=C(Nc1nc2c(F)cc(F)cc2s1)c1cc(Cl)ccc1O` [Compound 35, 5-Chloro-N-(4,6-difluorobenzo[d]thiazol-2-yl)-2-hydroxybenzamide ethanolamine], the EC50 in assay [2] is below 10 µM.

With `O=C(Nc1nc2ccc(C(F)(F)F)cc2s1)c1cc(Cl)cc(C2CC2)c1O` [Compound 36, 5-Chloro-3-cyclopropyl-2-hydroxy-N-(6-(trifluoromethyl)benzo[d]thiazol-2-yl)benzamide], the minimal effective concentration in assay [1] was below 10 µM. Further, the EC50 in assay [2] was below 10 µM.

In the case of `Cc1cc(Cl)cc(C(=O)Nc2nc3ccc(C(F)(F)F)cc3s2)c1O` [Compound 37, 5-Chloro-2-hydroxy-3-methyl-N-(6-(trifluoromethyl)benzo[d]thiazol-2-yl)benzamide compound with (2R,3R,4R,5S)-6-(methylamino)hexane-1,2,3,4,5-pentaol (1:1)], the EC50 in assay [2] is below 10 µM.

As for `Cc1cc(Cl)cc(C(=O)Nc2nc3cc(C(F)(F)F)ccc3s2)c1O` [Compound 41, 5-Chloro-2-hydroxy-3-methyl-N-(5-(trifluoromethyl)benzo[d]thiazol-2-yl)benzamide], in assay [1], the minimal effective concentration was below 10 µM. For the same molecule, the EC50 in assay [2] is below 10 µM.

Consider `Cc1cc(Cl)cc(C(=O)Nc2nc3cccc(C(F)(F)F)c3s2)c1O` [Compound 42, 5-Chloro-2-hydroxy-3-methyl-N-(7-(trifluoromethyl)benzo[d]thiazol-2-yl)benzamide], for which the minimal effective concentration in assay [1] was above 25 µM. Also, the EC50 in assay [2] was above 25 µM.

As for `O=C(Nc1nc2ccc(C(F)(F)F)cc2s1)c1cc(Cl)cc(CO)c1O` [Compound 49, 5-Chloro-2-hydroxy-3-(hydroxymethyl)-N-(6-(trifluoromethyl)benzo[d]thiazol-2-yl)benzamide], the minimal effective concentration in assay [1] is above 25 µM. Further, the EC50 in assay [2] is above 25 µM.

For `Cc1cc(Cl)cc(C(=O)Nc2nc3c(C(F)(F)F)cc(C(F)(F)F)cc3s2)c1O` [Compound 50, N-(4,6-Bis(trifluoromethyl)benzo[d]thiazol-2-yl)-5-chloro-2-hydroxy-3-methylbenzamide], the minimal effective concentration in assay [1] is below 10 µM. For the same molecule, in assay [2], the EC50 was below 10 µM.

As to `Cc1cc(Cl)cc(C(=O)Nc2nc3ccc(OC(F)(F)F)cc3s2)c1O` [Compound 51, 5-Chloro-2-hydroxy-3-methyl-N-(6-(trifluoromethoxy)benzo[d]thiazol-2-yl)benzamide], the minimal effective concentration in assay [1] is below 10 µM. Moreover, in assay [2], the EC50 is below 10 µM.

In the case of `CN(C)CCCc1cc(Cl)cc(C(=O)Nc2nc3ccc(C(F)(F)F)cc3s2)c1O` [Compound 52, 5-Chloro-3-(3-(dimethylamino)propyl)-2-hydroxy-N-(6-(trifluoromethyl)benzo[d]thiazol-2-yl)benzamide], the minimal effective concentration in assay [1] was below 10 µM.

Turning to `CN(C)Cc1cc(Cl)cc(C(=O)Nc2nc3ccc(C(F)(F)F)cc3s2)c1O` [Compound 53, 5-Chloro-3-((dimethylamino)methyl)-2-hydroxy-N-(6-(trifluoromethyl)benzo[d]thiazol-2-yl)benzamide], the minimal effective concentration in assay [1] is below 10 µM.

Consider `CN(C)Cc1cc(Cl)cc(C(=O)Nc2nc3ccc(OC(F)(F)F)cc3s2)c1O` [Compound 54, 5-Chloro-3-((dimethylamino)methyl)-2-hydroxy-N-(6-(trifluoromethoxy)benzo[d]thiazol-2-yl)benzamide], for which, in assay [1], the minimal effective concentration is below 10 µM.

For `Cc1nc2cc(Cl)cc(C(=O)Nc3nc4ccc(C(F)(F)F)cc4s3)c2[nH]1` [Compound 56, 5-Chloro-2-methyl-N-(6-(trifluoromethyl)benzo[d]thiazol-2-yl)-1H-benzo[d]imidazole-7-carboxamide], the minimal effective concentration in assay [1] was below 10 µM.

Consider `CCc1nc2cc(Cl)cc(C(=O)Nc3nc4ccc(C(F)(F)F)cc4s3)c2[nH]1` [Compound 57, 5-Chloro-2-ethyl-N-(6-(trifluoromethyl)benzo[d]thiazol-2-yl)-1H-benzo[d]imidazole-7-carboxamide], for which the minimal effective concentration in assay [1] was above 25 µM.

On to `O=C(Nc1nc2ccc(C(F)(F)F)cc2s1)c1cc(Cl)cc2nn[nH]c12` [Compound 58, 5-Chloro-N-(6-(trifluoromethyl)benzo[d]thiazol-2-yl)-1H-benzo[d][1,2,3]triazole-7-carboxamide], for which the minimal effective concentration in assay [1] is above 25 µM. In addition, in assay [2], the EC50 is above 25 µM.

As to `O=C(Nc1nc2c(F)cc(F)cc2s1)c1cc(Cl)cc2nn[nH]c12` [Compound 59, 5-Chloro-N-(4,6-difluorobenzo[d]thiazol-2-yl)-1H-benzo[d][1,2,3]triazole-7-carboxamide], the minimal effective concentration in assay [1] is above 25 µM.
